Patent US20240140933A1, “OXOINDOLINE COMPOUND FOR THE TREATMENT OF INFLAMMATORY DISEASES OR CANCER” (Hoffmann-La Roche Inc., priority 2021, published 2024)

Target: PDHK1 (Homo sapiens (Human), UniProt Q15118)
Assay: PDHK1 enzymatic assay (AlphaScreen, phosphorylation of PDHE1 S293)
Format: biochemical
Details: 1 nM PDHK1, 25 nM PDHE1, 20 μM ATP, 30° C. for 45 minutes; for IC50: read-out: Enzymatic IC50 against PDHK1 (converted)
Source text: Pyruvate dehydrogenase complex (PDHc) is an enzyme that catalyzes the reaction of pyruvate and a lipoamide to give the acetylated dihydrolipoamide and carbon dioxide. PDHc has three subunits E1, E2 and E3. E1 has 3 serine phosphorylation sites S293, S232, S300. If E1 was phosphorylated, PDH will be inactivated. PDHK can phosphorylate PDH protein (also named PDHE1) in PDH complex (PDC) to inactivate it.

PDHK1, sequence (Q15118 29-436): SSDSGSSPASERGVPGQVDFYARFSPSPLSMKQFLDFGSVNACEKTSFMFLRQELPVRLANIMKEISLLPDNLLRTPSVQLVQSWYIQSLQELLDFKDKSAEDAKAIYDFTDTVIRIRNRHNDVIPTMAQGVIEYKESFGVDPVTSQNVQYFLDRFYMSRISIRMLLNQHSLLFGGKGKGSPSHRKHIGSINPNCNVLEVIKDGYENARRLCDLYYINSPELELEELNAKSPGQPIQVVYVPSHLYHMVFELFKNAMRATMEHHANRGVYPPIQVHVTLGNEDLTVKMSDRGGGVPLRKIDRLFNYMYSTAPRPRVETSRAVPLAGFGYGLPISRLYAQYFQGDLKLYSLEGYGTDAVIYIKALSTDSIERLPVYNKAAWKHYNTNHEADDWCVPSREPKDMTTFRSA

| SMILES | IC50 [µM] | Enzymatic IC50 against PDHK1 [µg/mL] |
| --- | --- | --- |
| CCNc1cc(F)cc2c1NC(=O)[C@@]2(C)N1CCC[C@@H](Oc2ccc(S(=O)(=O)F)c(OC)c2)C1 [Example 4B, 4-[[(3R)-1-[(3S)-7-(ethylamino)-5-fluoro-3-methyl-2-oxo-indolin-3-yl]-3-piperidyl]oxy]-2-methoxy-benzenesulfonyl fluoride] | 0.109 |  |
| CCNc1cc(F)cc2c1NC(=O)[C@@]2(C)N1CC[C@@H](c2ccccc2)[C@@H](C(=O)NC)C1 [Example 60B, (3R,4R)-1-[(3S)-7-(ethylamino)-5-fluoro-3-methyl-2-oxo-indolin-3-yl]-N-methyl-4-phenyl-piperidine-3-carboxamide] | 0.0212 |  |
| CCNc1cc(F)cc2c1NC(=O)[C@]2(C)N1CC[C@H](c2ccccc2)[C@H](C(N)=O)C1 [Example 63A, (3S,4S)-1-[(3R)-7-(ethylamino)-5-fluoro-3-methyl-2-oxo-indolin-3-yl]-4-phenyl-piperidine-3-carboxamide] |  | 0.009 |
| C=CS(=O)(=O)c1ccc(N[C@@H]2CCCN(C3(C)C(=O)Nc4c(NCC)cc(F)cc43)C2)cc1 (stereo partly drawn) [Example 34, 7-(ethylamino)-5-fluoro-3-methyl-3-[(3R)-3-(4-vinylsulfonylanilino)-1-piperidyl]indolin-2-one] |  | 0.032 |
| CCNc1cc(F)cc2c1NC(=O)C2(C)N1CCC[C@@H](Nc2ccc(C#N)nn2)C1 (stereo partly drawn) [Example 16, 6-[[(3R)-1-[7-(ethylamino)-5-fluoro-3-methyl-2-oxo-indolin-3-yl]-3-piperidyl]amino]pyridazine-3-carbonitrile] |  | 0.047 |
| CCNc1cc(F)cc2c1NC(=O)[C@@]2(C)N1CC[C@@H](c2ccccc2)[C@@H](C(=O)NCc2ccccc2)C1 [Example 62B, (3R,4R)-N-benzyl-1-[(3S)-7-(ethylamino)-5-fluoro-3-methyl-2-oxo-indolin-3-yl]-4-phenyl-piperidine-3-carboxamide] | 0.0759 |  |
| CCNc1cc(F)cc2c1NC(=O)C2(C)N1CC[C@H](c2ccccc2Oc2ccc(C#N)cc2)[C@@H](NC(C)=O)C1 (stereo partly drawn) [Example 58, N-[(3R,4R)-4-[2-(4-cyanophenoxy)phenyl]-1-[7-(ethylamino)-5-fluoro-3-methyl-2-oxo-indolin-3-yl]-3-piperidyl]acetamide] |  | 0.03 |
| CCNc1cc(F)cc2c1NC(=O)C2(C)N1CCC[C@@H](Nc2ccc(O)nc2)C1 (stereo partly drawn) [Example 21, 7-(ethylamino)-5-fluoro-3-[(3R)-3-[(6-hydroxy-3-pyridyl)amino]-1-piperidyl]-3-methyl-indolin-2-one] |  | 0.037 |
| CCNc1cc(F)cc2c1NC(=O)C2(C)N1C[C@@H](C)C[C@@H](Nc2ccc(C#N)nc2)C1 (stereo partly drawn) [Example 47, 5-[[(3R,5S)-1-[7-(ethylamino)-5-fluoro-3-methyl-2-oxo-indolin-3-yl]-5-methyl-3-piperidyl]amino]pyridine-2-carbonitrile] |  | 0.019 |
| CCNc1cc(F)cc2c1NC(=O)C2(CC)N1CC[C@H](F)[C@@H](Nc2ccc(C#N)nc2)C1 (stereo partly drawn) [Example 49, 5-[[(3S,4S)-1-[3-ethyl-7-(ethylamino)-5-fluoro-2-oxo-indolin-3-yl]-4-fluoro-3-piperidyl]amino]pyridine-2-carbonitrile] |  | 0.007 |
| CCNc1cc(F)cc2c1NC(=O)C2(C)N1CCC[C@@H](Cc2ccc(C#N)cc2)C1 (stereo partly drawn) [Example 7, 4-[[(3S)-1-[7-(ethylamino)-5-fluoro-3-methyl-2-oxo-indolin-3-yl]-3-piperidyl]methyl]benzonitrile] | 0.379 |  |
| CCNc1cc(F)cc2c1NC(=O)C2(CC)N1CCC[C@@H](N(C(N)=O)c2ccc(C#N)nc2)C1 (stereo partly drawn) [Example 26, 1-(6-cyano-3-pyridyl)-1-[(3R)-1-[3-ethyl-7-(ethylamino)-5-fluoro-2-oxo-indolin-3-yl]-3-piperidyl]urea] |  | 0.067 |
| CCNc1cc(F)cc2c1NC(=O)C2(C)N1CCC[C@@H](Nc2ccc(C(=O)CO)cc2)C1 (stereo partly drawn) [Example 19, 7-(ethylamino)-5-fluoro-3-[(3R)-3-[4-(2-hydroxyacetyl)anilino]-1-piperidyl]-3-methyl-indolin-2-one] |  | 0.016 |
| CCNc1cc(F)cc2c1NC(=O)C2(C)N1CC[C@H](c2ccccc2)[C@@H](NC(C)=O)C1 (stereo partly drawn) [Example 52, N-[(3R,4R)-1-[7-(ethylamino)-5-fluoro-3-methyl-2-oxo-indolin-3-yl]-4-phenyl-3-piperidyl]acetamide] |  | 0.020 |
| C=CC(=O)N1CC2(CC(C(=O)N[C@@H]3CCCN(C4(C)C(=O)Nc5c(NCC)cc(F)cc54)C3)C2)C1 (stereo partly drawn) [Example 41, N-[(3R)-1-[7-(ethylamino)-5-fluoro-3-methyl-2-oxo-indolin-3-yl]-3-piperidyl]-2-prop-2-enoyl-2-azaspiro[3.3]heptane-6-carboxamide] |  | 0.032 |
| CCNc1cc(F)cc2c1NC(=O)C2(C)N1CC[C@H](O)[C@@H](Nc2ccc(C#N)nc2)C1 (stereo partly drawn) [Example 50, 5-[[(3S,4S)-1-[7-(ethylamino)-5-fluoro-3-methyl-2-oxo-indolin-3-yl]-4-hydroxy-3-piperidyl]amino]pyridine-2-carbonitrile] |  | 0.014 |
| CCNc1cc(F)cc2c1NC(=O)C2(C)N1CCCC(NC(=O)C2CC3(C2)CN(C#N)C3)C1 (stereo in doubt) [Example 37, 2-cyano-N-[(3R)-1-[7-(ethylamino)-5-fluoro-3-methyl-2-oxo-indolin-3-yl]-3-piperidyl]-2-azaspiro[3.3]heptane-6-carboxamide] |  | 0.039 |
| CCNc1cc(F)cc2c1NC(=O)[C@@]2(C)N1CC[C@@H](c2ccccc2)[C@@H](C(N)=O)C1 [Example 59B, (3R,4R)-1-[(3S)-7-(ethylamino)-5-fluoro-3-methyl-2-oxo-indolin-3-yl]-4-phenyl-piperidine-3-carboxamide] | 0.0171 |  |
| CCNc1cc(F)cc2c1NC(=O)C2(C)N1CCC[C@@H](Nc2ccc(C#N)cn2)C1 (stereo partly drawn) [Example 14, 6-[[(3R)-1-[7-(ethylamino)-5-fluoro-3-methyl-2-oxo-indolin-3-yl]-3-piperidyl]amino]pyridine-3-carbonitrile] |  | 0.007 |
| CCNc1cc(F)cc2c1NC(=O)C2(C)N1CCC[C@@H](NC(=O)C2CC3(C2)CN(C(=O)CCl)C3)C1 (stereo partly drawn) [Example 40, 2-(2-chloroacetyl)-N-[(3R)-1-[7-(ethylamino)-5-fluoro-3-methyl-2-oxo-indolin-3-yl]-3-piperidyl]-2-azaspiro[3.3]heptane-6-carboxamide] |  | 0.017 |
| CCNc1cc(F)cc2c1NC(=O)C2(C)N1CC[C@H](c2ccccc2Oc2ccc(C(=O)O)cc2)[C@@H](NC(C)=O)C1 (stereo partly drawn) [Example 56, 4-[2-[(3R,4R)-3-acetamido-1-[7-(ethylamino)-5-fluoro-3-methyl-2-oxo-indolin-3-yl]-4-piperidyl]phenoxy]benzoic acid] |  | 0.005 |
| CCNc1cc(F)cc2c1NC(=O)C2(C)N1CCC[C@@H](NC(=O)c2ccc(S(=O)(=O)F)cc2)C1 (stereo partly drawn) [Example 43, 4-[[(3R)-1-[7-(ethylamino)-5-fluoro-3-methyl-2-oxo-indolin-3-yl]-3-piperidyl]carbamoyl]benzenesulfonyl fluoride] |  | 0.016 |
